Data published in the NIST ThermoML archive (doi:10.1021/acs.jced.5b00613).

Assay: xn = mol fraction of the nth substance listed
Details: Liquid, Vibrating tube method

CCCCCCCCCCCCCCCC [hexadecane] + CCCCCC
mass density [kg/m3]
Details	100 kPa	1000 kPa	5000 kPa	10000 kPa	20000 kPa	30000 kPa	40000 kPa	50000 kPa	60000 kPa
298.15 K, x2 = 0.1985	759.7	760.3	763	766.3	772.3	777.9	783.2	788.1	–
298.15 K, x2 = 0.4136	744.4	745.1	748	751.4	757.8	763.7	769.2	774.4	779.5
298.15 K, x2 = 0.5007	736.7	737.5	740.4	744	750.4	756.5	762.2	767.5	772.6
298.15 K, x2 = 0.5966	726.9	727.5	730.6	734.3	741.1	747.4	753.2	758.6	763.9
298.15 K, x2 = 0.7928	700.2	700.8	704.3	708.5	715.9	722.7	729	734.8	740.4
323.15 K, x2 = 0.1985	742.3	743.2	746.2	749.9	756.7	763	768.7	774.2	779.4
323.15 K, x2 = 0.4136	726.2	727.1	730.4	734.4	741.6	748.3	754.3	760.1	765.4
323.15 K, x2 = 0.5007	717.7	719.1	722.6	726.7	734.1	741	747.2	753	758.5
323.15 K, x2 = 0.5966	707.8	708.9	712.4	716.7	724.4	731.5	737.9	744	749.7
323.15 K, x2 = 0.7928	679.1	680.6	684.7	689.6	698.3	706.2	713.2	719.7	725.7
348.15 K, x2 = 0.1985	724.4	725.2	728.7	732.9	740.6	747.6	754	760	765.6
348.15 K, x2 = 0.4136	708	709	712.8	717.3	725.6	733	739.7	746	751.9
348.15 K, x2 = 0.5007	698.3	700.1	704	708.6	717.2	724.9	731.8	738.2	744.2
348.15 K, x2 = 0.5966	687.2	689.3	693.5	698.5	707.5	715.4	722.6	729.3	735.5
348.15 K, x2 = 0.7928	658.2	659.5	664.5	670.2	680.3	689.2	697.1	704.3	711
373.15 K, x2 = 0.1985	706.6	707.5	711.7	716.4	725.2	733	740.1	746.6	752.7
373.15 K, x2 = 0.4136	689.1	690.2	694.8	699.9	709.4	717.7	725.3	732.3	738.7
373.15 K, x2 = 0.5007	–	681	685.8	691.2	701	709.7	717.5	724.6	731.2
373.15 K, x2 = 0.5966	–	669.9	674.9	680.7	691	700	708	715.3	722.1
373.15 K, x2 = 0.7928	–	638.3	644.3	651	662.7	672.8	681.7	689.7	697
423.15 K, x2 = 0.1985	668.8	670.8	676.3	682.5	693.7	703.3	711.9	719.7	726.8
423.15 K, x2 = 0.4136	–	651.3	657.6	664.5	676.6	687.1	696.3	704.6	712.1
423.15 K, x2 = 0.5007	–	640.9	647.6	654.9	667.6	678.5	688	696.5	704.2
423.15 K, x2 = 0.5966	–	628.2	635.3	643.3	656.9	668.3	678.2	687.1	695.2
423.15 K, x2 = 0.7928	–	592.3	601.2	610.7	626.4	639.2	650.3	660	668.8
463.15 K, x2 = 0.1985	–	640.3	647.5	655.5	669.1	680.6	690.5	699.3	707.4
463.15 K, x2 = 0.4136	–	618.2	626.5	635.6	650.7	663.2	673.9	683.4	692
463.15 K, x2 = 0.5007	–	606.1	615.2	624.9	640.9	654	665.1	674.9	683.6
463.15 K, x2 = 0.5966	–	593	602.9	613.2	630	643.6	655.2	665.3	674.4
463.15 K, x2 = 0.7928	–	–	563.7	577	597.1	612.8	625.8	637	647
